The values below come from US12122736B2, “Salty taste-enhancing agent and manufacturing method therefor, and salty taste-enhancing method” (NISSIN FOODS HOLDINGS CO., LTD., priority 2012, dated 2024).

A value given as a limit tells only on which side of the number the result lay.

Assay [1] in a line: Sensory evaluation of relationship between addition concentration and salty taste-enhancing action (Example 2). The settings on record: for Salty taste-enhancing effect: 0.700 wt % sodium chloride. How it is done: 3-Guanidino-1-propanol hydrochloride obtained in Synthesis Example 2 was evaluated for its relationship between an addition concentration and a salty taste-enhancing action.
3-Guanidino-1-propanol hydrochloride and sodium chloride (salt) were dissolved in distilled water to prepare an aqueous solution containing 1.5 ppm (0.00015 wt %), 15 ppm (0.0015 wt %), 150 ppm (0.015 wt %), or 1,500 ppm (0.15 wt %) of 3-guanidino-1-propanol hydrochloride and 0.700 wt % of sodium chloride, which was used as an evaluation solution. In addition, solutions containing 0.700 wt %, 0.735 wt %, 0.770 wt %, 0.805 wt %, and 0.840 wt % of sodium chloride were used as comparative objects.

The nature of assay [2]: Sensory evaluation of salty taste-enhancing action in salt aqueous solution (Example 1). To be noted: 0.150 wt % evaluation sample and 0.700 wt % sodium chloride in distilled water; compared with 0.700-0.840 wt % saline. How it is done: The salty taste-enhancing action may be evaluated by a sensory test.
Each evaluation sample and sodium chloride (salt) were dissolved in distilled water to prepare an aqueous solution containing 0.150 wt % of the evaluation sample and 0.700 wt % of sodium chloride, which was used as an evaluation solution. In addition, solutions containing 0.700 wt %, 0.735 wt %, 0.770 wt %, 0.805 wt %, and 0.840% of sodium chloride were used as comparative objects.

Take `Cl.N=C(N)NCCCO` [Synthesis Example 2, 3-Guanidino-1-propanol hydrochloride]: the “addition concentration at which a salty taste-enhancing action was exhibited” value in assay [1] (0.700 wt % sodium chloride aqueous solution) is at least 15 ppm. Also, the Salty taste-enhancing effect entry in assay [1] (addition concentration 1.5 ppm (0.00015%)) is “± (exhibiting a salty taste weaker than that of 0.735 wt % saline (exhibiting a salty taste-enhancing effect of less than 5%))”; in assay [1] (addition concentration 15 ppm (0.0015%)), “+ (exhibiting a salty taste equal to or stronger than that of 0.735 wt % saline (exhibiting a salty taste-enhancing effect of 5% or more))”; in assay [1] (addition concentration 150 ppm (0.015%)), “++ (exhibiting a salty taste equal to or stronger than that of 0.770 wt % saline (exhibiting a salty taste-enhancing effect of 10% or more))”; in assay [1] (addition concentration 1,500 ppm (0.15%)), “++++ (exhibiting a salty taste equal to or stronger than that of 0.840 wt % saline (exhibiting a salty taste-enhancing effect of 20% or more))”.
In the case of `N=C(N)NCCCCCC(=O)O` [6-Guanidinocaproic acid], the Salty taste-enhancing effect entry in assay [2] is on record as “+ (exhibiting a salty taste equal to or stronger than that of 0.735 wt % saline (exhibiting a salty taste-enhancing effect of 5% or more))”.
Same read-out and setting: the entry for `Cl.N=C(N)N` [Guanidine hydrochloride] is “+++ (exhibiting a salty taste equal to or stronger than that of 0.805 wt % saline (exhibiting a salty taste-enhancing effect of 15% or more))”; for `N=C(N)NCCC(=O)O` [β-Guanidinopropanoic acid] it is “++ (exhibiting a salty taste equal to or stronger than that of 0.770 wt % saline (exhibiting a salty taste-enhancing effect of 10% or more))”.
In the case of `N=C(N)NCCCO` [Example 14], in assay [2], the Salty taste-enhancing effect entry is given as “++++ (exhibiting a salty taste equal to or stronger than that of 0.840 wt % saline (exhibiting a salty taste-enhancing effect of 20% or more))”.
